Reference: patent publication US5200409A, “Composition and use of substituted 1,3-dithiolo-and 1,4-dithiinoquinoxalines as an antimicrobial” (The Dow Chemical Company, priority 1992, dated 1993)
≈ marks a conversion by molar mass, not a printed value. Read-outs that look alike come from different tables or passages of the source.

What was measured:
[1] = tested on: Enterobacter aerogenes (Ea); assay: Minimum inhibitory concentration (MIC) in nutrient agar; format: cell-based, Enterobacter aerogenes ATCC 13048; conditions: Klebsiella aerogenes
Outline: (§1)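 Each compound is tested by agar incorporation in nutrient agar at two pH values, 6.8 and 8.2, using final concentrations from 500 down to 1.0 ppm. Inoculum: 10^8 CFU/ml applied with a multipoint replicator; plates are read for growth after 48 h incubation at 30° C.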

marine organisms = assay: Marine antifouling rating of coated test panels exposed to the marine environment; conditions: scale 10 (completely free of growth) to 0 (completely covered); for Marine Antifouling Rating, 3 Week Test, Top Panel / Marine Antifouling Rating, 3 Week Test, Bottom Panel: 3 weeks; for Marine Antifouling Rating, 3 Week Test, Top Panel / Marine Antifouling Rating, 6 Week Test, Top Panel: topside, white background; for Marine Antifouling Rating, 3 Week Test, Bottom Panel / Marine Antifouling Rating, 6 Week Test, Bottom Panel: underside, black background; for Marine Antifouling Rating, 6 Week Test, Top Panel / Marine Antifouling Rating, 6 Week Test, Bottom Panel: 6 weeks
Procedure: Test panels are prepared from clear, rigid polyvinyl chloride film that is 0.381×10^-3 m thick and has one textured surface. The test panels are 0.1524 m by 0.1524 m squares that have 0.00635 m holes punched at corners on 0.127 m centers. A 0.102 square template, with a 0.067 m diameter hole at the center, is attached to the center of the textured surface of the test panels.
A candidate marine antifoulant compound (1.0 g) is stirred into a resinous latex binder (9.0 g). A portion of the compound/binder mixture (1.5 g) is added to the center of the test panel and uniformly spread over the circular area inside the template.
Water is added dropwise as needed to properly spread the compound/binder mixture. The template prevents the compound/binder mixture from spreading beyond the uncovered area. The test panel is allowed to sit for between ten to thirty minutes until the edge of the spread compound/binder mixture has dried. The template is then removed. The test panel is then allowed to dry for 8 to 12 hours at room temperature.
Two test panels are prepared for each candidate marine antifoulant compound. Two control test panels are also prepared by only treating with the resinous latex binder. One test panel of each candidate marine […] compound is attached over a white background to the topside of an exposure support apparatus. The second test panel is attached over a black background to the underside of the exposure support apparatus. The exposure support apparatus is placed horizontally 0.0254 m under a marine surface with the white background topside facing up. The exposure support apparatus is exposed to the marine environment for both 3 and 6 weeks during which time the control test panels become substantially covered with mature marine organism growth on both the topside and underside exposures.
After being removed from the exposure support apparatus, each test panel is inspected and rated for marine organism growth on both the treated and untreated areas of the test panel. The marine organisms present on the treated and untreated areas are noted. The presence of algea spores and bacterial slime are noted but not included in rating each test panel. The test panels are rated on a scale from 10 (representing completely free of marine organism growth) to 0 (representing completely covered with marine organism growth).

[2] = tested on: Saccharomyces cerevisiae (Sc); assay: Minimum inhibitory concentration (MIC) in malt yeast agar; format: cell-based, Saccharomyces cerevisiae ATCC 4105; conditions: read-out: Minimum Inhibitory Concentration, Sc
Outline: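 Compound dispersed in malt yeast agar at final 500, 250, 100, 50, 25, 10, 5, 2.5, 1.0 and 0 ppm (from 1% acetone/water solution); plates dried 24 h, then inoculated with saline/octylphenoxy polyethoxy ethanol suspensions of 7-day cultures diluted 1:9. Incubated at 30° C; read at 48 h for yeast, 72 h for fungi.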

[3] = tested on: Penicillium chrysogenum (Pc); assay: as above; format: cell-based, Penicillium chrysogenum ATCC 9480; conditions: read-out: Minimum Inhibitory Concentration, Pc
Outline: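 Agar dilution; malt yeast agar with 3 g yeast extract + 45 g malt agar/L; test levels 500–1.0 ppm plus zero. Inoculum: 7-day 30° C slant cultures suspended in saline with octylphenoxy polyethoxy ethanol, diluted 1:9, replicator-spotted. Read 72 h at 30° C.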

[4] = tested on: Klebsiella pneumoniae (Kp); assay: Minimum inhibitory concentration (MIC) in nutrient agar; format: cell-based, Klebsiella pneumoniae ATCC 8308
Outline: as §1

Proteus vulgaris (Pv) = assay: as above; format: cell-based, Proteus vulgaris ATCC 881
Outline: as §1

[5] = tested on: Salmonella choleraesuis (Sc); assay: as above; format: cell-based, Salmonella choleraesuis ATCC 10708; conditions: Salmonella enterica
Outline: as §1

Bacillus subtilis (Bs) = assay: as above; format: cell-based, Bacillus subtilis ATCC 8473
Outline: as §1

[6] = 48 h, pH 6.8, read-out: Minimum Inhibitory Concentration, Ea
[7] = 48 h, pH 8.2, read-out: Minimum Inhibitory Concentration, Ea
[8] = malt yeast agar, 30° C., 48 hours for yeast
[9] = 48 h, pH 8.2, read-out: Minimum Inhibitory Concentration, Kp
[10] = pH 6.8, nutrient agar, 30° C., 48 hours, read-out: Minimum Inhibitory Concentration, Kp
[11] = 48 h, pH 6.8, read-out: Minimum Inhibitory Concentration, Pv
[12] = 48 h, pH 8.2, read-out: Minimum Inhibitory Concentration, Pv
[13] = 48 h, pH 6.8, read-out: Minimum Inhibitory Concentration, Sc
[14] = 48 h, pH 8.2, read-out: Minimum Inhibitory Concentration, Sc
[15] = 48 h, pH 6.8, read-out: Minimum Inhibitory Concentration, Bs
[16] = 48 h, pH 8.2, read-out: Minimum Inhibitory Concentration, Bs
[17] = malt yeast agar, 30° C., 72 hours for fungi
[18] = pH 6.8, nutrient agar, 30° C., 48 hours, read-out: Minimum Inhibitory Concentration, Bs
[19] = 48 h, pH 6.8, read-out: Minimum Inhibitory Concentration, Kp

| SMILES | MIC [1, 6] [µg/mL] | MIC [1, 7] [µg/mL] | Marine Antifouling Rating, 3 Week Test, Top Panel (marine organisms) | Marine Antifouling Rating, 3 Week Test, Bottom Panel (marine organisms) | Marine Antifouling Rating, 6 Week Test, Top Panel (marine organisms) | Marine Antifouling Rating, 6 Week Test, Bottom Panel (marine organisms) | MIC [2, 8] [µg/mL] | MIC ([3]; 72 h) [µg/mL] | MIC [4, 9] [µg/mL] | MIC [4, 10] [µg/mL] | MIC (Proteus vulgaris (Pv); [11]) [µg/mL] | MIC (Proteus vulgaris (Pv); [12]) [µg/mL] | MIC [5, 13] [µg/mL] | MIC [5, 14] [µg/mL] | MIC (Bacillus subtilis (Bs); [15]) [µg/mL] | MIC (Bacillus subtilis (Bs); [16]) [µg/mL] | MIC [3, 17] [µg/mL] | MIC (Bacillus subtilis (Bs); [18]) [µg/mL] | MIC ([2]; 48 h) [µg/mL] | also measured |
| --- | --- | --- | --- | --- | --- | --- | --- | --- | --- | --- | --- | --- | --- | --- | --- | --- | --- | --- | --- | --- |
| N#CC(C#N)=C1Sc2nc3ccc([N+](=O)[O-])cc3nc2S1 [L, 6-nitro-1,3-dithiolo-(4,5-b)-quinoxaline-2-ylidene-propanedinitrile] | > 500 | > 500 | 7 | 7 | 9 | 0 | 5 (≈ 16 µM) | 2.5 (≈ 7.98 µM) | > 500 | > 500 | > 500 | > 500 | > 500 | > 500 | 100 (≈ 319 µM) | > 500 |  |  |  |  |
| N#CC1=C(C#N)Sc2nc3cc(Cl)ccc3nc2S1 [C, 7-chloro-1,4-dithiino-(2,3-b)-quinoxaline-2,3-dicarbonitrile] | > 500 | > 500 | 0 | 9 | 5 | 0 | < 10 |  | > 500 | > 500 | > 500 | > 500 | > 500 | > 500 |  | 25 (≈ 82.6 µM) | < 10 | 25 (≈ 82.6 µM) |  |  |
| N#CC1=C(C#N)Sc2nc3ccccc3nc2S1 [E, 1,4-dithiino-(2,3-b)-quinoxaline-2,3-dicarbonitrile] | > 500 | > 500 | 8 | 4 | 9 | 0 | < 10 |  | > 500 | 500 (≈ 1860 µM) | > 500 | > 500 | > 500 | > 500 |  | > 500 | < 10 | 50 (≈ 186 µM) |  |  |
| N#CC(C#N)=C1Sc2nc3ccc(Cl)cc3nc2S1 [O, 6-chloro-1,3-dithiolo-(4,5-b)-quinoxaline-2-ylidene-propanedinitrile] | > 500 | > 500 | 0 | 2 | 6 | 0 | > 500 |  | > 500 | > 500 | > 500 | > 500 | > 500 | > 500 | > 500 | > 500 | 500 (≈ 1650 µM) |  |  |  |
| N#CC1=C(C#N)Sc2nc3cc([N+](=O)[O-])c([N+](=O)[O-])cc3nc2S1 [B, 7,8-Dinitro-1,4-dithiino-(2,3-b)quinoxaline-2,3-dicarbonitrile] | > 500 | > 500 | 6 | 3 | 3 | 0 |  | 10 (≈ 27.9 µM) | > 500 |  | > 500 | > 500 | 500 (≈ 1400 µM) | > 500 | 500 (≈ 1400 µM) | 25 (≈ 69.8 µM) |  |  | 25 (≈ 69.8 µM) | MIC [4, 19]: 250 µg/mL (≈ 698 µM) |
| Cc1ccc2nc3c(nc2c1)SC(C#N)=C(C#N)S3 [D, 7-Methyl-1,4-dithiino-(2,3-b)quinoxaline-2,3-dicarbonitrile] | > 500 | > 500 | 4 | 3 | 3 | 0 |  | 50 (≈ 177 µM) | > 500 | > 500 | > 500 | > 500 | > 500 | > 500 |  | 250 (≈ 885 µM) |  | 25 (≈ 88.5 µM) | 25 (≈ 88.5 µM) |  |
| N#CC1=C(C#N)Sc2nc3cc([N+](=O)[O-])ccc3nc2S1 [A, 7-nitro-1,4-dithiino-(2,3-b)-quinoxaline-2,3-dicarbonitrile] |  | > 500 | 9 | 9 | 8 | 3 |  |  | 500 (≈ 1600 µM) | 25 (≈ 79.8 µM) |  | > 500 |  | > 500 |  |  |  | < 10 | 2.5 (≈ 7.98 µM) | MIC ([1]; pH 6.8, nutrient agar, 30° C., 48 hours, read-out: Minimum Inhibitory Concentration, Ea): 100 µg/mL (≈ 319 µM); MIC (Proteus vulgaris (Pv); pH 6.8, nutrient agar, 30° C., 48 hours, read-out: Minimum Inhibitory Concentration, Pv): 50 µg/mL (≈ 160 µM); MIC ([5]; pH 6.8, nutrient agar, 30° C., 48 hours, read-out: Minimum Inhibitory Concentration, Sc): 50 µg/mL (≈ 160 µM); MIC (Bacillus subtilis (Bs); pH 8.2, nutrient agar, 30° C., 48 hours, read-out: Minimum Inhibitory Concentration, Bs): 100 µg/mL (≈ 319 µM) |
| N#CC(C#N)=C1Sc2nc3cc([N+](=O)[O-])c([N+](=O)[O-])cc3nc2S1 [M, 6,7-dinitro-1,3-dithiolo-(4,5-b)-quinoxaline-2-ylidene-propanedinitrile] | > 500 | > 500 | 9 | 9 | 5 | 1 |  | 2.5 (≈ 6.98 µM) | > 500 |  | > 500 | > 500 | 500 (≈ 1400 µM) | > 500 | 100 (≈ 279 µM) | 250 (≈ 698 µM) |  |  | 2.5 (≈ 6.98 µM) | MIC [4, 19]: 50 µg/mL (≈ 140 µM) |
